Experimental data as given in patent US6077680A (The University of Florida, dated 2000).
Read-outs that look alike come from different tables or passages of the source.

Key:
[1] = tested on: rat brain membrane K channels (primarily Kv1.2); type: binding; conditions: for IC50: read-out: IC50 Rat Brain 125I-CTX
[2] = target: Kv1.3 potassium channels in Jurkat T lymphocytes (Homo sapiens, UniProt P22001); type: cell-based
[3] = target: rat brain membrane K channels (delayed rectifier, primarily Kv1.2) (rat) (UniProt P63142); experiment: 125I-DTX displacement, rat brain membranes
rat brain membrane K channels (delayed rectifier, primarily Kv1.2) (rat), sequence (P63142 whole entry): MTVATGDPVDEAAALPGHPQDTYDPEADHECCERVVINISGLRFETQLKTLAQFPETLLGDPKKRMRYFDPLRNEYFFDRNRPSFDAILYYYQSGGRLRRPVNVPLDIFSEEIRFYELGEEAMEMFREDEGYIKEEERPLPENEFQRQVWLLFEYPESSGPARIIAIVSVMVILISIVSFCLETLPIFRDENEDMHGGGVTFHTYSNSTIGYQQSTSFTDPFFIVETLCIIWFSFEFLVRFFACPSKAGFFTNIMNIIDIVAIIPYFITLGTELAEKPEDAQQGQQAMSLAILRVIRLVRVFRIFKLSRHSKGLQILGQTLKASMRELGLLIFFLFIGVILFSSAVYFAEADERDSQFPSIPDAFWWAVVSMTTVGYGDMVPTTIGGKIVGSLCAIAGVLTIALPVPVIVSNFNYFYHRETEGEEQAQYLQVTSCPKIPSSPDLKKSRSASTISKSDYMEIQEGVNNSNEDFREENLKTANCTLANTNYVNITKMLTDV

[4] = target: Kv1.3 potassium channel of human T lymphocytes (human) (UniProt P22001)
Kv1.3 potassium channel of human T lymphocytes (human), sequence (P22001 whole entry): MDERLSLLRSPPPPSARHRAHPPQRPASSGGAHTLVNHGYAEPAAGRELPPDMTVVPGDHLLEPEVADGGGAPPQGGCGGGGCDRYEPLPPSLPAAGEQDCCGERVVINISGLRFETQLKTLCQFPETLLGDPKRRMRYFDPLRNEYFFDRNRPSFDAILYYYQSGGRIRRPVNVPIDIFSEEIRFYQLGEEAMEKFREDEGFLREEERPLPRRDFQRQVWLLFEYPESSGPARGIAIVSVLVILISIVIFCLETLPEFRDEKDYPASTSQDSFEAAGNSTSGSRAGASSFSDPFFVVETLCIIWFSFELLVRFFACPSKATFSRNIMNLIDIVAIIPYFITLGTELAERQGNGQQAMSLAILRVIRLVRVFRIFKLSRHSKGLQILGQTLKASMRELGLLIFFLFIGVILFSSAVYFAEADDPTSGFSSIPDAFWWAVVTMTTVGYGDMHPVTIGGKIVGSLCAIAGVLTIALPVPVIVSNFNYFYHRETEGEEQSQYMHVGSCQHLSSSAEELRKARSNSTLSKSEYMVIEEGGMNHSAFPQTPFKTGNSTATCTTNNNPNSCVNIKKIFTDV

[5] = target: rat brain membrane K channels (delayed rectifier, primarily Kv1.2) (rat) (UniProt P63142)
[6] = target: rat brain membrane K channels (delayed rectifier, primarily Kv1.2) (rat) (UniProt P63142); remark: listed apart in the source
[7] = target: cloned Kv1.3 channel, wild type
[8] = target: rat brain membrane K channels (delayed rectifier, primarily Kv1.2) (rat) (UniProt P63142); remark: listed apart in the source

Kv1.3 potassium channels in Jurkat T lymphocytes, sequence (P22001 whole entry): as above

## CC[C@H](C)[C@@H]1NC(=O)[C@@H](NC(=O)[C@H](CO)NC(=O)[C@@H](N)CCCNC(=N)N)CSSC[C@@H](C(=O)O)NC(=O)[C@H]([C@@H](C)O)NC(=O)CNC(=O)[C@@H]2CSSC[C@@H]3NC(=O)[C@H](CCC(N)=O)NC(=O)[C@H](Cc4ccccc4)NC(=O)[C@H](C)NC(=O)[C@H]([C@@H](C)O)NC(=O)[C@H](CSSC[C@H](NC(=O)[C@H](Cc4ccccc4)NC(=O)[C@H](CO)NC(=O)[C@H](CC(C)C)NC(=O)[C@H](CCCNC(=N)N)NC(=O)[C@H](Cc4ccc(O)cc4)NC(=O)[C@H](CCCCN)NC(=O)[C@H](CCSC)NC(=O)[C@H](CO)NC(=O)[C@H](Cc4c[nH]cn4)NC(=O)[C@H](CCCCN)NC3=O)C(=O)N[C@@H](CCCNC(=N)N)C(=O)N[C@@H](CCCCN)C(=O)N[C@@H]([C@@H](C)O)C(=O)N2)NC(=O)[C@H](CCCNC(=N)N)NC(=O)[C@H](CO)NC(=O)[C@H](CCC(N)=O)NC(=O)[C@@H]2CCCN2C(=O)[C@H]([C@@H](C)CC)NC(=O)[C@H]([C@@H](C)O)NC(=O)[C@H](CC(=O)O)NC1=O [K9Q]
[1]
  Equipotent Molar Ration (Analog IC50 /ShK IC50) Rat brain: 0.6
  IC50: 11 nM
[2]
  Equipotent Molar Ration (Analog IC50 /ShK IC50) Lymphocyte: 9.6
  reduction of affinity (IC50) for Kv1.3 relative to ShK toxin: 9.6 fold

## CC[C@H](C)[C@@H]1NC(=O)[C@@H](NC(=O)[C@H](CO)NC(=O)[C@@H](N)CCCNC(=N)N)CSSC[C@@H](C(=O)O)NC(=O)[C@H]([C@@H](C)O)NC(=O)CNC(=O)[C@@H]2CSSC[C@@H]3NC(=O)[C@H](CCC(N)=O)NC(=O)[C@H](Cc4ccccc4)NC(=O)[C@H](C)NC(=O)[C@H]([C@@H](C)O)NC(=O)[C@H](CSSC[C@H](NC(=O)[C@H](Cc4ccccc4)NC(=O)[C@H](CO)NC(=O)[C@H](CC(C)C)NC(=O)[C@H](CCCNC(=N)N)NC(=O)[C@H](Cc4ccc(O)cc4)NC(=O)[C@H](CCC(=O)O)NC(=O)[C@H](CCSC)NC(=O)[C@H](CO)NC(=O)[C@H](Cc4c[nH]cn4)NC(=O)[C@H](CCCCN)NC3=O)C(=O)N[C@@H](CCCNC(=N)N)C(=O)N[C@@H](CCCCN)C(=O)N[C@@H]([C@@H](C)O)C(=O)N2)NC(=O)[C@H](CCCNC(=N)N)NC(=O)[C@H](CO)NC(=O)[C@H](CCCCN)NC(=O)[C@@H]2CCCN2C(=O)[C@H]([C@@H](C)CC)NC(=O)[C@H]([C@@H](C)O)NC(=O)[C@H](CC(=O)O)NC1=O [K22E]
[1]
  Equipotent Molar Ratio (Analog IC50 /ShK IC50): 726.0
  Free Energy Differ. of Binding ΔF: 3.86
  binding affinity for rat brain K channels relative to wild-type ShK toxin, in words: greatly reduced affinity

## CC[C@H](C)[C@@H]1NC(=O)[C@@H](NC(=O)[C@H](CO)NC(=O)[C@@H](N)CCCNC(=N)N)CSSC[C@@H](C(=O)O)NC(=O)[C@H]([C@@H](C)O)NC(=O)CNC(=O)[C@@H]2CSSC[C@@H]3NC(=O)[C@H](CCC(N)=O)NC(=O)[C@H](Cc4ccccc4)NC(=O)[C@H](C)NC(=O)[C@H]([C@@H](C)O)NC(=O)[C@H](CSSC[C@H](NC(=O)[C@H](Cc4ccccc4)NC(=O)[C@H](CO)NC(=O)[C@H](CC(C)C)NC(=O)[C@H](CCCNC(=N)N)NC(=O)[C@H](Cc4ccc(O)cc4)NC(=O)[C@H](CCCNC(=N)N)NC(=O)[C@H](CCSC)NC(=O)[C@H](CO)NC(=O)[C@H](Cc4c[nH]cn4)NC(=O)[C@H](CCCCN)NC3=O)C(=O)N[C@@H](CCCNC(=N)N)C(=O)N[C@@H](CCCCN)C(=O)N[C@@H]([C@@H](C)O)C(=O)N2)NC(=O)[C@H](CCCNC(=N)N)NC(=O)[C@H](CO)NC(=O)[C@H](CCCCN)NC(=O)[C@@H]2CCCN2C(=O)[C@H]([C@@H](C)CC)NC(=O)[C@H]([C@@H](C)O)NC(=O)[C@H](CC(=O)O)NC1=O [K22R]
[1]
  Equipotent Molar Ration (Analog IC50 /ShK IC50) Rat brain: > 500
  IC50 Ratio: > 500
  ΔF: > 3.65
  IC50: 2000 nM
[2]
  Equipotent Molar Ration (Analog IC50 /ShK IC50) Lymphocyte: 225
  reduction of affinity (IC50) for Kv1.3 relative to ShK toxin: > 225 fold

## CC[C@H](C)[C@@H]1NC(=O)[C@@H](NC(=O)[C@H](CO)NC(=O)[C@@H](N)CCCNC(=N)N)CSSC[C@@H](C(=O)O)NC(=O)[C@H]([C@@H](C)O)NC(=O)CNC(=O)[C@@H]2CSSC[C@@H]3NC(=O)[C@H](CCC(N)=O)NC(=O)[C@H](Cc4ccccc4)NC(=O)[C@H](C)NC(=O)[C@H]([C@@H](C)O)NC(=O)[C@H](CSSC[C@H](NC(=O)[C@H](Cc4ccccc4)NC(=O)[C@H](CO)NC(=O)[C@H](C)NC(=O)[C@H](CCCNC(=N)N)NC(=O)[C@H](Cc4ccc(O)cc4)NC(=O)[C@H](CCCCN)NC(=O)[C@H](CCSC)NC(=O)[C@H](CO)NC(=O)[C@H](Cc4c[nH]cn4)NC(=O)[C@H](CCCCN)NC3=O)C(=O)N[C@@H](CCCNC(=N)N)C(=O)N[C@@H](CCCCN)C(=O)N[C@@H]([C@@H](C)O)C(=O)N2)NC(=O)[C@H](CCCNC(=N)N)NC(=O)[C@H](CO)NC(=O)[C@H](CCCCN)NC(=O)[C@@H]2CCCN2C(=O)[C@H]([C@@H](C)CC)NC(=O)[C@H]([C@@H](C)O)NC(=O)[C@H](CC(=O)O)NC1=O [L25A]
[1]
  Difference of Free Energy of Binding: 0.20
  IC50 Ratio: 1.4

## CCCC[C@@H]1NC(=O)[C@H](CO)NC(=O)[C@H](Cc2c[nH]cn2)NC(=O)[C@H](CCCCN)NC(=O)[C@@H]2CSSC[C@@H]3NC(=O)[C@H]([C@@H](C)O)NC(=O)[C@H](CCCCN)NC(=O)[C@H](CCCNC(=N)N)NC(=O)[C@H](CSSC[C@H](NC(=O)[C@H](CCCNC(=N)N)NC(=O)[C@H](CO)NC(=O)[C@H](CCCCN)NC(=O)[C@@H]4CCCN4C(=O)[C@H]([C@@H](C)CC)NC(=O)[C@H]([C@@H](C)O)NC(=O)[C@H](CC(=O)O)NC(=O)[C@H]([C@@H](C)CC)NC(=O)[C@@H](NC(=O)[C@H](CO)NC(=O)[C@@H](N)CCCNC(=N)N)CSSC[C@@H](C(=O)O)NC(=O)[C@H]([C@@H](C)O)NC(=O)CNC3=O)C(=O)N[C@@H]([C@@H](C)O)C(=O)N[C@@H](C)C(=O)N[C@@H](Cc3ccccc3)C(=O)N[C@@H](CCC(N)=O)C(=O)N2)NC(=O)[C@H](Cc2ccccc2)NC(=O)[C@H](CO)NC(=O)[C@H](CC(C)C)NC(=O)[C@H](CCCNC(=N)N)NC(=O)[C@H](Cc2ccc(O)cc2)NC(=O)[C@H](CCCCN)NC1=O [M21Nle]
[1]
  Equipotent Molar Ration (Analog IC50 /ShK IC50) Rat brain: 0.8
  effect on binding to either K channel subtype: no significant affect on binding
  IC50: 9 nM
[2]
  Equipotent Molar Ration (Analog IC50 /ShK IC50) Lymphocyte: 0.80

## CC[C@H](C)[C@@H]1NC(=O)[C@@H](NC(=O)[C@H](CO)NC(=O)[C@@H](N)CCCNC(=N)N)CSSC[C@@H](C(=O)O)NC(=O)[C@H]([C@@H](C)O)NC(=O)CNC(=O)[C@@H]2CSSC[C@@H]3NC(=O)[C@H](CCC(N)=O)NC(=O)[C@H](Cc4ccccc4)NC(=O)[C@H](C)NC(=O)[C@H]([C@@H](C)O)NC(=O)[C@H](CSSC[C@H](NC(=O)[C@H](Cc4ccccc4)NC(=O)[C@H](CO)NC(=O)[C@H](CC(C)C)NC(=O)[C@H](CCCNC(=N)N)NC(=O)[C@H](CO)NC(=O)[C@H](CCCCN)NC(=O)[C@H](CCSC)NC(=O)[C@H](CO)NC(=O)[C@H](Cc4c[nH]cn4)NC(=O)[C@H](CCCCN)NC3=O)C(=O)N[C@@H](CCCNC(=N)N)C(=O)N[C@@H](CCCCN)C(=O)N[C@@H]([C@@H](C)O)C(=O)N2)NC(=O)[C@H](CCCNC(=N)N)NC(=O)[C@H](CO)NC(=O)[C@H](CCCCN)NC(=O)[C@@H]2CCCN2C(=O)[C@H]([C@@H](C)CC)NC(=O)[C@H]([C@@H](C)O)NC(=O)[C@H](CC(=O)O)NC1=O [Y23S]
[1]
  IC50: > 5000 nM

## RSCADTIPKSRCTAAQCKHSMKYRLSFCRKRCGTC [A4 + A15]
[1]
  Equipotent Molar Ratio (Analog IC50 /ShK IC50): 0.5
  Free Energy Differ. of Binding ΔF: -0.41
  IC50 Ratio: 0.5
  binding affinity for rat brain K channels relative to wild-type ShK toxin, in words: more potent than the wild-type toxin
  ΔF: -0.41

## RSCIDSTIPKSRCTAAQKHSMKYRASFCRKTCGTC [A15 + A25]
[1]
  Equipotent Molar Ratio (Analog IC50 /ShK IC50): 2.1
  Free Energy Differ. of Binding ΔF: 0.43
  IC50 Ratio: 2.1
  ΔF: 0.43

## RSCIDTIPKSRCTAPQCKHSMKYRLSFCRATCGTC [K30A]
[1]
  Difference of Free Energy of Binding: 0.98
  IC50 Ratio: 5.3
  increase in relative free energy of binding: approximately 1 kcal/mol

## RSCIDTIPKSRCTAPQCKHSMKYRLSFCRKACGTC [T31A]
[1]
  Difference of Free Energy of Binding: -0.30
  IC50 Ratio: 0.6
  binding affinity for rat brain K channels relative to wild-type ShK toxin, in words: increased affinities

## RSCIDTIPKSRCTAPQCKHSMKYRLSFCRKTCGAC [T34A]
[1]
  Difference of Free Energy of Binding: 0.0
  IC50 Ratio: 1.0

## ShK I7A (peptide)
[3]
  IC50 ratio (analog IC50/ShK IC50): 5.2
  free energy difference of binding: 0.96 kcal/mol

## ShK K9A (peptide)
[3]
  IC50 ratio (analog IC50/ShK IC50): 1.3
  free energy difference of binding: 0.15 kcal/mol

## ShK K9Q (peptide)
[4]
  equipotent molar ratio (analog IC50/ShK IC50) for block of Kv1.3 current: 9.6
[5]
  IC50: 11 nM
[3]
  IC50 ratio (analog IC50/ShK IC50): 0.6

## ShK K22 citrulline (peptide)
[5]
  IC50: 2000 nM

## ShK K22Homocit (peptide)
[6]
  IC50 ratio (analog IC50/ShK IC50): > 500
  free energy difference of binding: > 3.65 kcal/mol
[7]
  Kd: > 100 nM
[3]
  IC50 ratio (analog IC50/ShK IC50): > 500

## ShK K22Nle (peptide)
[4]
  equipotent molar ratio (analog IC50/ShK IC50) for block of Kv1.3 current: > 23
[6]
  IC50 ratio (analog IC50/ShK IC50): > 250
  free energy difference of binding: > 3.23 kcal/mol
[3]
  IC50 ratio (analog IC50/ShK IC50): > 250

## ShK M21Nle (peptide)
[4]
  equipotent molar ratio (analog IC50/ShK IC50) for block of Kv1.3 current: 0.8
[5]
  IC50: 9 nM
[3]
  IC50 ratio (analog IC50/ShK IC50): 0.8

## ShK P8A (peptide)
[3]
  IC50 ratio (analog IC50/ShK IC50): 1.9
  free energy difference of binding: 0.38 kcal/mol

## ShK R1A (peptide)
[3]
  IC50 ratio (analog IC50/ShK IC50): 1.5
  free energy difference of binding: 0.23 kcal/mol

## ShK Y23Apa (peptide)
[8]
  IC50 ratio (analog IC50/ShK IC50): 0.8
  free energy difference of binding: -0.13 kcal/mol
[7]
  Kd: 0.12 nM
[3]
  IC50 ratio (analog IC50/ShK IC50): 0.8

## ShK Y23Bpa (peptide)
[8]
  IC50 ratio (analog IC50/ShK IC50): 3.76
  free energy difference of binding: 0.78 kcal/mol

## ShK Y23Cha (peptide)
[8]
  IC50 ratio (analog IC50/ShK IC50): 8.8
  free energy difference of binding: 1.27 kcal/mol
[3]
  IC50 ratio (analog IC50/ShK IC50): 8.8
  free energy difference of binding: 1.27 kcal/mol

## ShK Y23Nph (peptide)
[8]
  IC50 ratio (analog IC50/ShK IC50): 1
  free energy difference of binding: 0 kcal/mol
[7]
  Kd: 0.2 nM
[3]
  IC50 ratio (analog IC50/ShK IC50): 1
